# Data published in ChEMBL document CHEMBL3132769, “Fragment growing to retain or alter the selectivity of anchored kinase hinge-binding fragments” (Medchemcomm, 2014).
# Columns and labels:
# [1] = biological target: T1, Interleukin-1 receptor-associated kinase 4 (Homo sapiens) (UniProt Q9NWZ3); experiment: Inhibition of human IRAK4 catalytic domain expressed in baculovirus assessed as substrate phosphorylation using fluorescence-labelled peptides as substrate at 0.2 uM after 90 mins by microfluidic peptide phosphorylation assay
# T1 sequence (whole entry): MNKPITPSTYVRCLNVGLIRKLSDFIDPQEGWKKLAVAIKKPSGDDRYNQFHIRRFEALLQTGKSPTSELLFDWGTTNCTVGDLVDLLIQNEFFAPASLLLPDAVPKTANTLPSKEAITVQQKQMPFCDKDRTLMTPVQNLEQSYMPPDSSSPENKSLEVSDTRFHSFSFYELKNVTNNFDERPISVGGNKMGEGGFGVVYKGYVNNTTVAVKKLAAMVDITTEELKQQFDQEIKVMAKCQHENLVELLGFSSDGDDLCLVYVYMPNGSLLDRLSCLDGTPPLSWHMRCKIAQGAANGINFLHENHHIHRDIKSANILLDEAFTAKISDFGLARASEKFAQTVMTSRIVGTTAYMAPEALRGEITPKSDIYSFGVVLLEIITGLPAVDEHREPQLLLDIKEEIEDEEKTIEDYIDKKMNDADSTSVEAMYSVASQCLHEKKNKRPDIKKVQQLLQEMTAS
# [2] = biological target: T2, Serine/threonine-protein kinase DCLK2 (Homo sapiens) (UniProt Q8N568); experiment: Inhibition of human full length DCAMKL2 expressed in baculovirus assessed as substrate phosphorylation using fluorescence-labelled peptides as substrate at 0.2 uM after 90 mins by microfluidic peptide phosphorylation assay
# T2 sequence (whole entry): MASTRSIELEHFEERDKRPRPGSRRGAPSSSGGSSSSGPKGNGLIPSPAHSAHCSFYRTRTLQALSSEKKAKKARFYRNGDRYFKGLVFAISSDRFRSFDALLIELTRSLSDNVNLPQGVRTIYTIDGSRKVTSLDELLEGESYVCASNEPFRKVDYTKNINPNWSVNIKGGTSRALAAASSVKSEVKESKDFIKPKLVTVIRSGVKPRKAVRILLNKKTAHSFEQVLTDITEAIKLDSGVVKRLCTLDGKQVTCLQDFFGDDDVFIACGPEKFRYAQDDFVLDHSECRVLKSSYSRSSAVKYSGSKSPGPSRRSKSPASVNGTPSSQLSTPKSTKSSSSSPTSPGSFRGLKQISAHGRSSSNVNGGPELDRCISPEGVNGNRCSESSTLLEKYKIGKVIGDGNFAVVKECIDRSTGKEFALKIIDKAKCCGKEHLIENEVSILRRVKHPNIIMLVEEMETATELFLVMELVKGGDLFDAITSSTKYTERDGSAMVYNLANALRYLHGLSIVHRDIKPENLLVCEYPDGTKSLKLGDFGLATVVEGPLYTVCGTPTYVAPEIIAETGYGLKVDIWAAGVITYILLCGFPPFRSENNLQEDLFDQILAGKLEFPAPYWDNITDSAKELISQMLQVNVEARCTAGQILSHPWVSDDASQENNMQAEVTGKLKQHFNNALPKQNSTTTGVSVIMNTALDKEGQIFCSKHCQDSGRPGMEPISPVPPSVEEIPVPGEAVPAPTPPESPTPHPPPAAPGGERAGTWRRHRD
# [3] = biological target: T3, Mitogen-activated protein kinase 12 (Homo sapiens) (UniProt P53778); experiment: Inhibition of human full length p38 gamma expressed in Escherichia coli cell assessed as substrate phosphorylation using fluorescence-labelled peptides as substrate at 420 uM after 90 mins by microfluidic peptide phosphorylation assay
# T3 sequence (whole entry): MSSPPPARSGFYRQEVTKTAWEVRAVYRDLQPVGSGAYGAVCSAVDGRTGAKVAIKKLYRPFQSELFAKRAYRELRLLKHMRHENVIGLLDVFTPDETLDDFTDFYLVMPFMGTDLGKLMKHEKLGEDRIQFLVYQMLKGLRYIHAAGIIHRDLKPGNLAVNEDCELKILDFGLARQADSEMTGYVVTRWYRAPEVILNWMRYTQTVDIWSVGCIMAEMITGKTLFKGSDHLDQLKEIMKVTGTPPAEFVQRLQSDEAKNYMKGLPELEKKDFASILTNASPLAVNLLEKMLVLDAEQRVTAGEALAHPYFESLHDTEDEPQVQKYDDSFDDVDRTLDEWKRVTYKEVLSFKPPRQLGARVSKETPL
# [4] = biological target: Serine/threonine-protein kinase MARK2 (Homo sapiens) (UniProt Q7KZI7); experiment: Inhibition of human full length MARK2 expressed in baculovirus assessed as substrate phosphorylation using fluorescence-labelled peptides as substrate at 420 uM after 90 mins by microfluidic peptide phosphorylation assay
# Serine/threonine-protein kinase MARK2 (Homo sapiens), sequence (Q7KZI7 whole entry, the tested form may be a part): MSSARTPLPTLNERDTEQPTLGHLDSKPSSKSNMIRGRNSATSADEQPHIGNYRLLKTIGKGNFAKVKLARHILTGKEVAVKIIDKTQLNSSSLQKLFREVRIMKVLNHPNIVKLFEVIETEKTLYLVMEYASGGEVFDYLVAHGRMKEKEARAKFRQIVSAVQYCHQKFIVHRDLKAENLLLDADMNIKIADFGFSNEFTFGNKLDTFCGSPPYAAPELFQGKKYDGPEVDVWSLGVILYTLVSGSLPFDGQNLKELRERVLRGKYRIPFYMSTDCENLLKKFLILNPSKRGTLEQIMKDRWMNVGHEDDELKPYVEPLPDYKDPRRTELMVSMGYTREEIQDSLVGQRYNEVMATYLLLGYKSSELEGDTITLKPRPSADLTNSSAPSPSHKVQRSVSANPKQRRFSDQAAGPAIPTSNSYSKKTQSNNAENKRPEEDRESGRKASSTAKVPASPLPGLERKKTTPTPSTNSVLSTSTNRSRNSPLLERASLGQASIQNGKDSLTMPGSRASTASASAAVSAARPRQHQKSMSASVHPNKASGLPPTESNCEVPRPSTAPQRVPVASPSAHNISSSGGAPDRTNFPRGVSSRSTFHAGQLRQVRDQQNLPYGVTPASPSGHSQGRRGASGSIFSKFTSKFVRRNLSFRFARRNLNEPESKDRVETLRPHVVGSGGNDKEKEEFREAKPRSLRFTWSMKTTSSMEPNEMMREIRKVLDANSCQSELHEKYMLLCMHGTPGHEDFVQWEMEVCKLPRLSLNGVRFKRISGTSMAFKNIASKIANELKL
# [5] = biological target: Calcium/calmodulin-dependent protein kinase type II subunit gamma (Homo sapiens) (UniProt Q13555); experiment: Inhibition of human CAMK2 gamma catalytic domain expressed in baculovirus assessed as substrate phosphorylation using fluorescence-labelled peptides as substrate at 420 uM after 90 mins by microfluidic peptide phosphorylation assay
# Calcium/calmodulin-dependent protein kinase type II subunit gamma (Homo sapiens), sequence (Q13555 whole entry, the tested form may be a part): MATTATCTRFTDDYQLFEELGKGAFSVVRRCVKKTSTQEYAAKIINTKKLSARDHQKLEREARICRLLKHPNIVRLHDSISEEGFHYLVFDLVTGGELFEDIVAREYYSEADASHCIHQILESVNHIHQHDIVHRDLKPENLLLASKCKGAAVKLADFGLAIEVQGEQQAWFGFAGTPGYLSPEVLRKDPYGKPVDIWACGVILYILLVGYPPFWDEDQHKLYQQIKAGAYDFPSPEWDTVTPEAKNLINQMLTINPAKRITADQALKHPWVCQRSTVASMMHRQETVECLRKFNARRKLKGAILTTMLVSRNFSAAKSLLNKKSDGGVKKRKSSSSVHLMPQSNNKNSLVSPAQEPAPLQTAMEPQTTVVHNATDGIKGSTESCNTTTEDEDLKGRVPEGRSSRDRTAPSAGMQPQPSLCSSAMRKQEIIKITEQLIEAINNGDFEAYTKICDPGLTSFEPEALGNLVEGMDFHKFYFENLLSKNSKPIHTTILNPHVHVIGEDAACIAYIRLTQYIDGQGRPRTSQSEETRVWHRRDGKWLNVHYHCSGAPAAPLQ
# [6] = biological target: T4, Aurora kinase A (Homo sapiens) (UniProt O14965); experiment: Inhibition of human full length AurA expressed in baculovirus assessed as substrate phosphorylation using fluorescence-labelled peptides as substrate at 95 uM after 90 mins by microfluidic peptide phosphorylation assay
# T4 sequence (whole entry): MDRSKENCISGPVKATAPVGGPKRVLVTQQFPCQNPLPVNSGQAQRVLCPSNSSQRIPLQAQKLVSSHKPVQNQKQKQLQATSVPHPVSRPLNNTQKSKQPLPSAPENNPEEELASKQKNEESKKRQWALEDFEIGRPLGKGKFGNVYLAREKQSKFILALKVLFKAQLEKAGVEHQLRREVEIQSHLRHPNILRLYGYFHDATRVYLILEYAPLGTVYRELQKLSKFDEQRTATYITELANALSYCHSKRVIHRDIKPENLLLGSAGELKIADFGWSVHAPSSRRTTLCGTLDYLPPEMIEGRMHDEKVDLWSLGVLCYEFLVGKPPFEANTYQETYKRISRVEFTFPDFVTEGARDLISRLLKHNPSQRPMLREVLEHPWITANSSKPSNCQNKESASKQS
# [7] = biological target: Receptor-type tyrosine-protein kinase FLT3 (Homo sapiens) (UniProt P36888); experiment: Inhibition of human FLT3 catalytic domain expressed in baculovirus assessed as substrate phosphorylation using fluorescence-labelled peptides as substrate at 95 uM after 90 mins by microfluidic peptide phosphorylation assay
# Receptor-type tyrosine-protein kinase FLT3 (Homo sapiens), sequence (P36888 whole entry, the tested form may be a part): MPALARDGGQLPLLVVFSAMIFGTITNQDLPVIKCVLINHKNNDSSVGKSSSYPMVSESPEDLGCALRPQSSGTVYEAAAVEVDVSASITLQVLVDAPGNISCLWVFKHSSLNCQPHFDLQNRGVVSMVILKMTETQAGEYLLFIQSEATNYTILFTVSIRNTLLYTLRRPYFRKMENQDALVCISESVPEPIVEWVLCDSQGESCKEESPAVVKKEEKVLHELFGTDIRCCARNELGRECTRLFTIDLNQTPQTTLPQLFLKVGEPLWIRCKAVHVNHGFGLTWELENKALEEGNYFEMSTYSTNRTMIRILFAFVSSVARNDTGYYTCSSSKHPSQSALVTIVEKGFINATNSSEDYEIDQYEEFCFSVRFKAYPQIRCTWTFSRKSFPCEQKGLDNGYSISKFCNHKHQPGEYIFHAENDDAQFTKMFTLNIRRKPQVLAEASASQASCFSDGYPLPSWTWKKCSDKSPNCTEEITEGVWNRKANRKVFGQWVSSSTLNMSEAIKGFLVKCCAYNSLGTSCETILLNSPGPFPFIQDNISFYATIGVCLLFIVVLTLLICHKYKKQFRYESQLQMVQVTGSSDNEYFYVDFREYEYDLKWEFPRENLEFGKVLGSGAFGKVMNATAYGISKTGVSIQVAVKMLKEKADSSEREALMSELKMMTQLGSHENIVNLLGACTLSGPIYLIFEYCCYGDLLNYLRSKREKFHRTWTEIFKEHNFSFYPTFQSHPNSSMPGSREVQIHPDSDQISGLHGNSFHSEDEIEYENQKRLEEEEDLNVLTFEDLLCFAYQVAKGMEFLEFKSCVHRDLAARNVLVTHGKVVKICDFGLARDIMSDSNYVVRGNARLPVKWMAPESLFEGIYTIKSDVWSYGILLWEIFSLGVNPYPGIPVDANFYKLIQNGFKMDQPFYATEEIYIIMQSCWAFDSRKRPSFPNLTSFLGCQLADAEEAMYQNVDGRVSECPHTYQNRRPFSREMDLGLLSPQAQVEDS
# [8] = biological target: Ribosomal protein S6 kinase alpha-2 (Homo sapiens) (UniProt Q15349); experiment: Inhibition of human full length RSK3 expressed in baculovirus assessed as substrate phosphorylation using fluorescence-labelled peptides as substrate at […] after 90 mins by microfluidic peptide phosphorylation assay
# Ribosomal protein S6 kinase alpha-2 (Homo sapiens), sequence (Q15349 whole entry): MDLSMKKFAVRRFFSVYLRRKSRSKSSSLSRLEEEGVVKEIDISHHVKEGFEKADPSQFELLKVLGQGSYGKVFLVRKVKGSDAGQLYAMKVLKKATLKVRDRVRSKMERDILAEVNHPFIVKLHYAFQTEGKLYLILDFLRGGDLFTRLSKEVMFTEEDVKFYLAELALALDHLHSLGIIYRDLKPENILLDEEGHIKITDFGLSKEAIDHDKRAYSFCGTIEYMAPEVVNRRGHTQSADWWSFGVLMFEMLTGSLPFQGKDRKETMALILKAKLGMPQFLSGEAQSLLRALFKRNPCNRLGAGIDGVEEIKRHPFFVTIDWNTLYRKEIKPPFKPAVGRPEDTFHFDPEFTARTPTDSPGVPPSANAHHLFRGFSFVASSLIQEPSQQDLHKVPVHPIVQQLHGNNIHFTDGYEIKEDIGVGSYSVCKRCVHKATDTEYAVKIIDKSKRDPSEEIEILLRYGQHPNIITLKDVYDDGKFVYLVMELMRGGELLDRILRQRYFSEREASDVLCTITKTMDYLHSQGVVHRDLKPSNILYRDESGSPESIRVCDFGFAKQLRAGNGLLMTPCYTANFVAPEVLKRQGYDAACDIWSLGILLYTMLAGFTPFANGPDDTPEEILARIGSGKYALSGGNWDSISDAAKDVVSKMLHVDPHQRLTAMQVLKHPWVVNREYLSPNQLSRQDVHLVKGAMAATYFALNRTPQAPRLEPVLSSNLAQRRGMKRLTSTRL
# [9] = biological target: T4, Aurora kinase A (Homo sapiens); experiment: Inhibition of human full length AurA expressed in baculovirus assessed as substrate phosphorylation using fluorescence-labelled peptides as substrate at 8 uM after 90 mins by microfluidic peptide phosphorylation assay
# [10] = biological target: MAP kinase p38 (Homo sapiens) (UniProt O15264+Q15759+Q16539+P53778); experiment: Inhibition of human full length p38 beta2 expressed in Escherichia coli cell assessed as substrate phosphorylation using fluorescence-labelled peptides as substrate at 8 uM after 90 mins by microfluidic peptide phosphorylation assay
smiles,measurement,setting,value
Clc1ccc(C2(c3ccc(-c4ncnc5[nH]cnc45)cc3)CCNCC2)cc1,inhibition,[1],13%
same,inhibition,[2],10%
c1nc(N2CCOCC2)c2nc[nH]c2n1,inhibition,[3],41.5%
same,inhibition,[4],88%
same,inhibition,[5],42%
NCCc1ccc(-c2ncnc3[nH]cnc23)cc1,inhibition,[6],85%
same,inhibition,[7],49.5%
COC(=O)c1cnc(Nc2cnc(C#N)cn2)cc1NCC1CCNCC1,inhibition,[8],44%
NCC1CCN(c2ncnc3[nH]ccc23)CC1,inhibition,[9],87.5%
same,inhibition,[10],12.5%
